According to patent US20150290200A1, “INTRACELLULAR KINASE INHIBITORS” (Pharmacyclics Inc., priority 2006, published 2015):
Like-named read-outs stand apart in the source and are kept apart here.

Key:
[1] = biological target: T1, ITK kinase domain (Homo sapiens, UniProt Q08881); experiment: In vitro kinase assay (HITHUNTER enzyme fragment complementation), ITK; type: biochemical
T1 construct: N-terminally His-tagged ITK kinase domain (amino acids 352-617); His (N); made in house
T1 sequence (Q08881 352-617): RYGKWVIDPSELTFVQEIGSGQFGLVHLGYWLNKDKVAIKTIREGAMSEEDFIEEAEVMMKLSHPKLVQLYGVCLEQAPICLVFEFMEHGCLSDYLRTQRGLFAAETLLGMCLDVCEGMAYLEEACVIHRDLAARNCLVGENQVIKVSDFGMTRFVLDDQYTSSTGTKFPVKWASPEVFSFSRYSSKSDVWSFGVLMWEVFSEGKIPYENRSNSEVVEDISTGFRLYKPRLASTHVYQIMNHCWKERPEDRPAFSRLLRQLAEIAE
Method: Compounds were screened using the HITHUNTER™ enzyme fragment complementation method (Discoverx). Briefly, a recombinantly produced, N-terminally His-tagged ITK kinase domain (amino acids 352-617) was incubated with various concentrations of individual compounds. ATP and substrate were added, and the kinase reaction was allowed to proceed for 2-16 hours. Commercially available detection reagents were added and allowed to react for 2-4 hours. The reaction was evaluated by luminescence. Initial results were confirmed using full-length recombinant ITK protein.
In order to confirm the mechanism by which compounds depicted herein interact with the kinase domain of Tec and EGFR kinases, we created a point mutant of the ITK kinase domain, whereby the key amino acid, namely C442 was mutated to alanine. The protein was expressed in a commercial baculovirus expression system using the manufacturer's general protocol (Invitrogen, pBlueBac). Protein was expressed and purified using standard techniques. […] While the activity of WT-ITK was inhibited by compounds depicted in this application, the same compounds had no activity towards the C442A mutant kinase domain.

[2] = biological target: T2, BTK kinase domain (Homo sapiens, UniProt Q06187); experiment: In vitro kinase assay (HITHUNTER), BTK; type: biochemical
T2 construct: The kinase domains of BTK, LCK and ERK were expressed as recombinant purified proteins; made in house
Source text: Similarly, commercially available reagents such as HITHUNTER™ were used to evaluate the effect of compounds on the activity of additional kinases. The kinase domains of BTK, LCK and ERK were expressed as recombinant purified proteins were used for these studies.

[3] = Table 3, Compound, read-out: IC50 ITK

T2 sequence (Q06187 402-655 limits assumed): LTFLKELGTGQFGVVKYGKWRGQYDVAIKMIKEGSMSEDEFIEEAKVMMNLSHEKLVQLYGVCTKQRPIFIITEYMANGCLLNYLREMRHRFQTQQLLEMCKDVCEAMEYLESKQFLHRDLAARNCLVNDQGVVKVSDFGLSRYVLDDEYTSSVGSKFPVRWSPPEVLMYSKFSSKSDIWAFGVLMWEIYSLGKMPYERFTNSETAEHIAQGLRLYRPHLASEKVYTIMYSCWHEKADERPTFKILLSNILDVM

## CC(C)CN(C)CCC(=O)c1ccc2ccccc2c1
[1]; Table 1, ITK, read-out: IC50
  IC50: 0.0136 µM

## O=C(CCN1CCN(c2ccccc2)CC1)c1ccc2ccccc2c1
[1]; Table 1, ITK, read-out: IC50
  IC50: 0.00426 µM

## CC(C)C1CCN(CCC(=O)c2ccc3ccccc3c2)CC1
[1]; Table 1, ITK, read-out: IC50
  IC50: 0.0133 µM

## CC(C)C1CCN(CCC(=O)c2ccc3ccccc3c2)C1 (centres unmarked)
[1]; Table 1, ITK, read-out: IC50
  IC50: 0.00686 µM

## COc1ccc(C(=O)CCN2CCOCC2)cc1[N+](=O)[O-]
[1]; Table 2, read-out: IC50 ITK
  IC50: 0.02 µM

## CN(C)C1CCN(CCC(=O)C2=CC3NC(=O)COC3C=C2)C1 (centres unmarked)
[1]; [3]
  IC50: 0.072 µM
[2]; Table 3, Compound
  IC50: 1.89 µM

## CN(CCC(=O)c1ccc2c(c1)NC(=O)CO2)Cc1ccc(F)cc1
[1]; [3]
  IC50: 0.01 µM
[2]; Table 3, Compound
  IC50: 0.3 µM

## CN(C)CCN1CCN(CCC(=O)c2ccc3c(c2)NC(=O)CO3)CC1
[1]; [3]
  IC50: 0.018 µM
[2]; Table 3, Compound
  IC50: 0.481 µM

## CN(C)C1CCN(CCC(=O)c2ccc3c(c2)NC(=O)CO3)CC1
[1]; [3]
  IC50: 0.013 µM
[2]; Table 3, Compound
  IC50: 0.15 µM

## CC(C)N(CCC(=O)c1ccc2c(c1)NC(=O)CO2)C(C)C
[1]; [3]
  IC50: 0.023 µM
[2]; Table 3, Compound
  IC50: 0.544 µM

## CN(CCC(=O)c1ccc2ccccc2c1)Cc1ccc(C(F)(F)F)cc1
[1]; Table 4, read-out: IC50 ITK
  IC50: 0.0567 µM

## O=C(CCN1CCN(Cc2ccccc2)CC1)c1ccc2ccccc2c1
[1]; Table 4, read-out: IC50 ITK
  IC50: 0.0303 µM

## O=C(CCN1CCC(c2ccccc2)C1)c1ccc2ccccc2c1 (centres unmarked)
[1]; Table 4, read-out: IC50 ITK
  IC50: 0.0228 µM

## O=C(CCN1CCOCC1)c1ccc2ccccc2n1
[1]; Table 4, read-out: IC50 ITK
  IC50: 0.048 µM
[2]; Table 4
  IC50: 5 µM

## O=C(CCN1CCOCC1)c1cnc2ccccc2c1
[1]; Table 4, read-out: IC50 ITK
  IC50: 0.189 µM
[2]; Table 4
  IC50: 0.1 µM

## O=C(CCN1CCOCC1)c1c[nH]c2ccccc12
[1]; Table 4, read-out: IC50 ITK
  IC50: 0.176 µM
[2]; Table 4
  IC50: 8.17 µM

## O=C(CCN1CCOCC1)c1n[nH]c2ccccc12
[1]; Table 4, read-out: IC50 ITK
  IC50: 0.049 µM
[2]; Table 4
  IC50: 0.296 µM

## O=C(CCN1CCOCC1)c1csc2ccccc12
[1]; Table 4, read-out: IC50 ITK
  IC50: 0.134 µM
[2]; Table 4
  IC50: 0.611 µM

## O=C(CCN1CCOCC1)c1ccc2sccc2c1
[1]; Table 4, read-out: IC50 ITK
  IC50: 0.06 µM
[2]; Table 4
  IC50: 0.334 µM

## O=C(CCN1CCOCC1)c1cc2ccccc2o1
[1]; Table 4, read-out: IC50 ITK
  IC50: 56.4 µM
[2]; Table 4
  IC50 BTK: no IC50

## O=C(CCN1CCOCC1)c1cc2ccccc2s1
[1]; Table 4, read-out: IC50 ITK
  IC50: 0.01 µM
[2]; Table 4
  IC50: 0.017 µM

## O=C(CCN1CCOCC1)c1ccc2cc(O)ccc2c1
[1]; Table 4, read-out: IC50 ITK
  IC50: 0.03 µM
[2]; Table 4
  IC50: 0.006 µM

## O=C(O)c1ccc2cc(C(=O)CCN3CCOCC3)ccc2c1
[1]; Table 4, read-out: IC50 ITK
  IC50: 3.34 µM
[2]; Table 4
  IC50: 2.36 µM

## O=CNc1ccc2cc(C(=O)CCN3CCOCC3)ccc2c1
[1]; Table 4, read-out: IC50 ITK
  IC50: 0.042 µM
[2]; Table 4
  IC50: 0.002 µM

## O=C(CCN1CCCCC1)c1ccc2ccccc2c1
[1]; Table 5, read-out: IC50 ITK
  IC50: 0.537 µM

## CC1CCCN1CCC(=O)c1ccc2ccccc2c1 (centres unmarked)
[1]; Table 5, read-out: IC50 ITK
  IC50: 0.852 µM

## CN(C)CCC(=O)c1ccc2ccccc2c1
[1]; Table 5, read-out: IC50 ITK
  IC50: 0.161 µM

## CC1CCN(CCC(=O)c2ccc3ccccc3c2)CC1
[1]; Table 5, read-out: IC50 ITK
  IC50: 0.31 µM

## O=C(CCN1CCC(c2ccccn2)C1)c1ccc2ccccc2c1 (centres unmarked)
[1]; Table 5, read-out: IC50 ITK
  IC50: 0.0359 µM

## CC(C)N(C)CCC(=O)c1ccc2ccccc2c1
[1]; Table 5, read-out: IC50 ITK
  IC50: 0.0163 µM

## O=C(CCN1CCNCC1)c1ccc2ccccc2c1
[1]; Table 5, read-out: IC50 ITK
  IC50: 0.117 µM
[2]; Table 5
  IC50: 0.41 µM

## NC(=O)N1CCN(CCC(=O)c2ccc3ccccc3c2)CC1
[1]; Table 5, read-out: IC50 ITK
  IC50: 0.023 µM
[2]; Table 5
  IC50: 0.153 µM

## CN(C)C(=O)N1CCN(CCC(=O)c2ccc3ccccc3c2)CC1
[1]; Table 5, read-out: IC50 ITK
  IC50: 0.056 µM
[2]; Table 5
  IC50: 0.452 µM

## O=C(CCN1CCN(C(=O)N2CCOCC2)CC1)c1ccc2ccccc2c1
[1]; Table 5, read-out: IC50 ITK
  IC50: 0.06 µM
[2]; Table 5
  IC50: 0.242 µM

## CC(=O)N1CCN(CCC(=O)c2ccc3ccccc3c2)CC1
[1]; Table 5, read-out: IC50 ITK
  IC50: 0.066 µM
[2]; Table 5
  IC50: 0.089 µM

## CC(C)(C)C(=O)N1CCN(CCC(=O)c2ccc3ccccc3c2)CC1
[1]; Table 5, read-out: IC50 ITK
  IC50: 0.064 µM
[2]; Table 5
  IC50: 0.36 µM

## O=C(CCN1CCN(C(=O)c2ccncc2)CC1)c1ccc2ccccc2c1
[1]; Table 5, read-out: IC50 ITK
  IC50: 0.054 µM
[2]; Table 5
  IC50: 0.018 µM

## O=C(CCN1CCCCNC1)c1ccc2ccccc2c1
[1]; Table 5, read-out: IC50 ITK
  IC50: 0.087 µM
[2]; Table 5
  IC50: 0.051 µM

## O=C(CCN1CCSCC1)c1ccc2ccccc2c1
[1]; Table 5, read-out: IC50 ITK
  IC50: 0.031 µM
[2]; Table 5
  IC50: 0.071 µM

## O=C(CCN1CCS(=O)(=O)CC1)c1ccc2ccccc2c1
[1]; Table 5, read-out: IC50 ITK
  IC50: 0.066 µM
[2]; Table 5
  IC50: 0.117 µM

## O=C(CCN1CCC[C@@H]1CO)c1ccc2ccccc2c1
[1]; Table 5, read-out: IC50 ITK
  IC50: 0.049 µM
[2]; Table 5
  IC50: 0.123 µM

## OC(CCN1CCOCC1)c1ccc2ccccc2c1 (centres unmarked)
[1]; Table 7, elimination mechanism
  IC50 ITK: no IC50

## CC(C)(CN1CCCCC1)C(=O)c1ccc2ccccc2c1
[1]; Table 7, elimination mechanism
  IC50 ITK: no IC50

## CC(C)N(CCC(=O)c1ccc2ccccc2c1)C(C)C [drawing 104]
[1]; Table 1, ITK, read-out: IC50
  IC50: 0.0181 µM

## CN(CCC(=O)c1ccc2ccccc2c1)Cc1ccccc1 [drawing 107]
[1]; Table 1, ITK, read-out: IC50
  IC50: 0.0258 µM

## CN1CCN(CCC(=O)c2ccc3ccccc3c2)CC1 [drawing 110]
[1]; Table 1, ITK, read-out: IC50
  IC50: 0.0504 µM

## O=C(CCN1CCN(CC2CCCCC2)CC1)c1ccc2ccccc2c1 [drawing 111]
[1]; Table 1, ITK, read-out: IC50
  IC50: 0.0114 µM

## O=C(CCN1Cc2ccccc2C1)c1ccc2ccccc2c1 [drawing 114]
[1]; Table 1, ITK, read-out: IC50
  IC50: 0.0286 µM

## O=C(CCN1CCc2ccccc2C1)c1ccc2ccccc2c1 [drawing 115]
[1]; Table 1, ITK, read-out: IC50
  IC50: 0.0183 µM

## COc1cc2c(cc1OC)CN(CCC(=O)c1ccc3ccccc3c1)CC2 [drawing 116]
[1]; Table 1, ITK, read-out: IC50
  IC50: 0.00085 µM

## O=C(CCN1CCOCC1)c1ccc2ccccc2c1 [drawing 117]
[1]; Table 1, ITK, read-out: IC50
  IC50: 0.0719 µM

## CN(CCC(=O)c1ccc2ccccc2c1)Cc1ccco1 [drawing 118]
[1]; Table 1, ITK, read-out: IC50
  IC50: 0.0196 µM

## O=C(CCN1CCC(Cc2ccccc2)CC1)c1ccc2ccccc2c1 [drawing 182]
[1]; Table 4, read-out: IC50 ITK
  IC50: 0.0928 µM

## O=C(CCN1CCCC1)c1ccc2ccccc2c1 [drawing 184]
[1]; Table 4, read-out: IC50 ITK
  IC50: 0.0749 µM

## CN(CCC(=O)c1ccc2ccccc2c1)Cc1ccccc1 [drawing 203]
[1]; Table 5, read-out: IC50 ITK
  IC50: 0.0169 µM

## O=C(CCN1CCN(c2ccccn2)CC1)c1ccc2ccccc2c1 [drawing 205]
[1]; Table 5, read-out: IC50 ITK
  IC50: 0.0148 µM

## CN1CCN(CCC(=O)c2ccc3ccccc3c2)CC1 [drawing 208]
[1]; Table 5, read-out: IC50 ITK
  IC50: 0.0309 µM

## O=C(CCN1CCc2ccccc2C1)c1ccc2ccccc2c1 [drawing 209]
[1]; Table 5, read-out: IC50 ITK
  IC50: 0.0212 µM

## O=C(CCN1CCN(c2ccccn2)CC1)c1ccc2ccccc2c1 [drawing 211]
[1]; Table 5, read-out: IC50 ITK
  IC50: 0.0242 µM

## CN(CCC(=O)c1ccc2ccccc2c1)Cc1ccco1 [drawing 215]
[1]; Table 5, read-out: IC50 ITK
  IC50: 0.0187 µM

## CN(C)C1CCN(CCC(=O)c2ccc3ccccc3c2)CC1 [drawing 216]
[1]; Table 5, read-out: IC50 ITK
  IC50: 0.0095 µM

## O=C(CCN1Cc2ccccc2C1)c1ccc2ccccc2c1 [drawing 217]
[1]; Table 5, read-out: IC50 ITK
  IC50: 0.0162 µM

## O=C(CCN1CCN(CC2CCCCC2)CC1)c1ccc2ccccc2c1 [drawing 219]
[1]; Table 5, read-out: IC50 ITK
  IC50: 0.0147 µM

## CC(C)N(CCC(=O)c1ccc2ccccc2c1)C(C)C [drawing 220]
[1]; Table 5, read-out: IC50 ITK
  IC50: 0.0092 µM

## O=C(CCN1CCOCC1)c1ccc2ccccc2c1 [drawing 254]
[1]; Table 7, elimination mechanism, read-out: IC50 ITK
  IC50: 0.0446 µM
